Experimental data: patent US20250304623A1, “PEPTIDES FOR INTRACELLULAR DELIVERY” (UNIVERSIDADE DE SANTIAGO DE COMPOSTELA, priority 2022, published 2025)
*: point of attachment. NHNH2 = NN*

Assays:
Format in all cases: cell-based
ARPE19 cells = assay: RLuc pDNA delivery, robotic library screening, ARPE19
[1] = test system: HepG2 cells expressing EGFP; assay: Cas9-RNP delivery against EGFP (gene editing, plate reader), HepG2
Method: To generate an EGFP expressing HeLa cell line, HeLa cells were transfected with EGFP pDNA (pEGFP-C1, Clontech) and stable transfectants were selected with 400 μg/mL of G-418 (Millipore). Green clones were selected by epifluorescence microscopy and tested for EGFP expression stability through several passages. […] All other EGFP-expressing cell lines were obtained in a similar way from parent non-EGFP-expressing cell lines.
Cells expressing EGFP were seeded in a 96 well plate the day before the experiment at a concentration of 50,000 cell/mL (100 μL/w) in DMEM+10% FBS+1% Gln-Abt. For robotic library screening, the delivery of Cas9-RNP against EGFP (RNP designed to knock-out the gene encoding for the enhanced green fluorescent protein (EGFP)) was performed. For RNP assembly, 9.2 μL of crRNA and 9.2 μL of tracrRNA were mixed in 211.6 μL of Nuclease-Free Duplex Buffer (IDT), incubated for 5 min at 95° C. and slowly cooled at rt (see I. Lostalé-Seijo, et al. Peptide/Cas9 nanostructures for ribonucleoprotein cell membrane transport and gene edition, Chem. Sci., 2017). Cas9 protein was dissolved in DMEM at a final concentration of 4 μM and equal volumes of the RNA complex and Cas9 were mixed and incubated for 5 min at rt. 75 μL of the corresponding amphiphile concentrations were added to 5 μL of RNP at 2 μM. The mixture was shaken for 30 min at room temperature before the addition to the cells. The cell medium was aspirated, and cells were washed twice with PBS. Cells were covered with 30 μL of DMEM and 20 μL of the RNP/amphiphile complexes were added to the cells (final peptide concentrations=2.5, 5 and 10 μM; final Cas9-RNP concentration=50 nM) and incubated for 4 h. After the incubation, the medium was replaced by 100 μL of fresh DMEM supplemented with 10% FBS. The total EGFP fluorescence was quantified after 72 h in a plate reader (FIG. 2, Table 1 (right) and Table 6). All experiments were done in triplicate. […]
Tables 26-31 show the mean (triplicates) percentage of gene editing, accounted by GFP fluorescence intensity decrease (% of reduction), measured after the transfection of Cas9-RNP by different amphiphiles at different concentrations in a variety of cell lines. Background values, accounted by untreated control cells, were subtracted for processing.

A549 cells = assay: RLuc pDNA delivery, robotic library screening, A549
How it was run: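 A549 cells in DMEM+10% FBS were washed twice with PBS and exposed for 4 h to amphiphile/RLuc pDNA complexes prepared from DMSO stocks diluted in DMEM. After medium replacement and 72 hours, cells in HBSS were incubated at 37° C. for 30 minutes, basal then total luminescence measured after 5 μM coelenterazine h; background from untransfected cells was subtracted.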

Substance	mean luminescent intensity (RLuc pDNA) (ARPE19 cells; Dodecanal, 5 μM)	mean luminescent intensity (RLuc pDNA) (ARPE19 cells; Myristoleyl, 5 μM)	mean luminescent intensity (RLuc pDNA) (ARPE19 cells; Myristoleyl, 10 μM)	mean luminescent intensity (RLuc pDNA) (ARPE19 cells; Myristoleyl, 15 μM)	percentage of gene editing, GFP fluorescence intensity decrease (% of reduction) ([1]; Dodecanal, 5 μM)	percentage of gene editing, GFP fluorescence intensity decrease (% of reduction) ([1]; Dodecanal, 10 μM)	percentage of gene editing, GFP fluorescence intensity decrease (% of reduction) ([1]; Dodecanal, 15 μM)	percentage of gene editing, GFP fluorescence intensity decrease (% of reduction) ([1]; Myristoleyl, 5 μM)	percentage of gene editing, GFP fluorescence intensity decrease (% of reduction) ([1]; Myristoleyl, 10 μM)	mean luminescent intensity (RLuc pDNA) (A549 cells; Dodecanal, 15 μM)	mean luminescent intensity (RLuc pDNA) (A549 cells; Myristoleyl, 5 μM)	mean luminescent intensity (RLuc pDNA) (A549 cells; Myristoleyl, 10 μM)	mean luminescent intensity (RLuc pDNA) (A549 cells; Myristoleyl, 15 μM)	mean luminescent intensity (RLuc pDNA) (ARPE19 cells; Petroselinyl, 5 μM)	mean luminescent intensity (RLuc pDNA) (ARPE19 cells; Petroselinyl, 10 μM)	mean luminescent intensity (RLuc pDNA) (ARPE19 cells; Petroselinyl, 15 μM)	percentage of gene editing, GFP fluorescence intensity decrease (% of reduction) ([1]; Petroselinyl, 5 μM)	percentage of gene editing, GFP fluorescence intensity decrease (% of reduction) ([1]; Petroselinyl, 10 μM)	mean luminescent intensity (RLuc pDNA) (A549 cells; Dodecanal, 10 μM)	mean luminescent intensity (RLuc pDNA) (A549 cells; Petroselinyl, 15 μM)	also measured
Ac-RK*LRRK*L-NH2 (Ac-RK(NHNH2)LRRK(NHNH2)L-NH2; not fully specified; printed as Ac-RK*LRRK*L-NH2; also: K*2,K*6: native or modified lysine (ε-amide to a linker)) [Peptide 7.2]	567 RLU	−485 RLU	−509 RLU	−568 RLU	−23%	−56%	−47%	−42%	−40%	208 RLU	5449 RLU	5343 RLU	2367 RLU								mean luminescent intensity (RLuc pDNA) (ARPE19 cells; Dodecanal, 10 μM): 424 RLU; mean luminescent intensity (RLuc pDNA) (ARPE19 cells; Dodecanal, 15 μM): 462 RLU; percentage of gene editing, GFP fluorescence intensity decrease (% of reduction) ([1]; Myristoleyl, 15 μM): −21%; mean luminescent intensity (RLuc pDNA) (A549 cells; Dodecanal, 5 μM): 302 RLU
Ac-RK*LRRK*LRK*-NH2 (Ac-RK(NHNH2)LRRK(NHNH2)LRK(NHNH2)-NH2; not fully specified; printed as Ac-RK*LRRK*LRK*-NH2; also: K*2,K*6,K*9: native or modified lysine (ε-amide to a linker)) [Peptide 9.3]		1400 RLU	6498 RLU	1695 RLU		−29%	−26%		−5%		23125 RLU	32698 RLU	6504 RLU	1052 RLU	39447 RLU	55918 RLU	−24%	−19%	2898 RLU	5514 RLU	mean luminescent intensity (RLuc pDNA) (ARPE19 cells; Palmitoleyl, 15 μM): 7259 RLU; percentage of gene editing, GFP fluorescence intensity decrease (% of reduction) ([1]; Oleyl, 5 μM): −10%; percentage of gene editing, GFP fluorescence intensity decrease (% of reduction) ([1]; Oleyl, 10 μM): 3%; mean luminescent intensity (RLuc pDNA) (A549 cells; Oleyl, 10 μM): 1117 RLU; mean luminescent intensity (RLuc pDNA) (A549 cells; Oleyl, 15 μM): 1433 RLU; mean luminescent intensity (RLuc pDNA) (A549 cells; Palmitoleyl, 10 μM): 5800 RLU; mean luminescent intensity (RLuc pDNA) (A549 cells; Palmitoleyl, 15 μM): 9967 RLU; mean luminescent intensity (RLuc pDNA) (A549 cells; Petroselinyl, 10 μM): 4167 RLU
Ac-RK*LRRLLRK*-NH2 (Ac-RK(NHNH2)LRRLLRK(NHNH2)-NH2; not fully specified; printed as Ac-RK*LRRLLRK*-NH2; also: K*2,K*9: native or modified lysine (ε-amide to a linker)) [Peptide 9.2]		−374 RLU	−528 RLU	−547 RLU		−35%	−35%		−17%		10365 RLU	3358 RLU	1684 RLU						1215 RLU		
Ac-RRHK*RLK*RRLK*RL-NH2 (Ac-RRHK(NHNH2)RLK(NHNH2)RRLK(NHNH2)RL-NH2; not fully specified; printed as Ac-RRHK*RLK*RRLK*RL-NH2; also: K*4,K*7,K*11: native or modified lysine (ε-amide to a linker)) [13(Leu-His)]		6946 RLU	72 RLU	102 RLU		−37%			11%					4661 RLU			−7%	9%		2865 RLU	mean luminescent intensity (RLuc pDNA) (ARPE19 cells; Palmitoleyl, 5 μM): 8615 RLU; percentage of gene editing, GFP fluorescence intensity decrease (% of reduction) ([1]; Oleyl, 15 μM): −22%; percentage of gene editing, GFP fluorescence intensity decrease (% of reduction) ([1]; Palmitoleyl, 5 μM): −36%; percentage of gene editing, GFP fluorescence intensity decrease (% of reduction) ([1]; Palmitoleyl, 10 μM): 8%; percentage of gene editing, GFP fluorescence intensity decrease (% of reduction) ([1]; Palmitoleyl, 15 μM): 13%; percentage of gene editing, GFP fluorescence intensity decrease (% of reduction) ([1]; Petroselinyl, 15 μM): 14%; mean luminescent intensity (RLuc pDNA) (A549 cells; Oleyl, 5 μM): 17058 RLU
Ac-RRLK*RLK*RRLK*RL-NH2 [Peptide 13.3]	2557 RLU	6819 RLU	3064 RLU	−316 RLU	−27%	−11%		−22%	3%	1174 RLU		2097 RLU		1458 RLU	35316 RLU	5730 RLU	−20%		964 RLU	2205 RLU	mean luminescent intensity (RLuc pDNA) (ARPE19 cells; Oleyl, 5 μM): 1946 RLU; mean luminescent intensity (RLuc pDNA) (ARPE19 cells; Oleyl, 10 μM): 957 RLU; mean luminescent intensity (RLuc pDNA) (ARPE19 cells; Oleyl, 15 μM): 1379 RLU; mean luminescent intensity (RLuc pDNA) (ARPE19 cells; Palmitoleyl, 5 μM): 13194 RLU; percentage of gene editing, GFP fluorescence intensity decrease (% of reduction) ([1]; Palmitoleyl, 5 μM): −30%; percentage of gene editing, GFP fluorescence intensity decrease (% of reduction) ([1]; Palmitoleyl, 10 μM): −19%; mean luminescent intensity (RLuc pDNA) (A549 cells; Oleyl, 10 μM): 1248 RLU; mean luminescent intensity (RLuc pDNA) (A549 cells; Oleyl, 15 μM): 1919 RLU; mean luminescent intensity (RLuc pDNA) (A549 cells; Palmitoleyl, 10 μM): 2647 RLU; mean luminescent intensity (RLuc pDNA) (A549 cells; Palmitoleyl, 15 μM): 2262 RLU
